How the values were obtained:
[1] = Incorporation of Tacrolimus into MPEG-hexPLA polymer micelles; format: physicochemical; details: loadings up to 300 mg Tacrolimus per gram MPEGhexPLA; aqueous micelle solution, acetone/water sonication protocol
Method: Objective is the evaluation of the methoxypoly(ethylene glycol)-hexyl-substituted poly(lactic acid) [MPEG-hexPLA] polymer micelles' potential to incorporate and solubilize Tacrolimus.
The incorporation studies were carried out by a standard formulation protocol. Briefly, a defined amount of Tacrolimus was dissolved in acetone and added dropwise under sonication into water, followed by evaporation of the organic solvent and equilibration of the micelle solution overnight.
As it can be seen, for loadings up to 300 mg Tacrolimus per gram MPEGhexPLA, loading efficiencies higher than 70% could be obtained by this simple procedure. FIG. 2 presents the corresponding concentrations of Tacrolimus in the aqueous solution. It has to be noted, that these solutions can be further concentrated by simple evaporation to obtain higher drug concentrations, and keeping the transparency of the solutions.

[2] = Storage stability of Tacrolimus MPEG-hexPLA micelle formulations at 4° C.; format: physicochemical; details: stored at 4° C.
From the text: The non-incorporated active compound can be removed by a simple filtration.

[3] = cited from earlier work

In the case of `C=CCC1/C=C(\C)CC(C)CC(OC)C2OC(O)(C(=O)C(=O)N3CCCCC3C(=O)OC(/C(C)=C/C3CCC(O)C(OC)C3)C(C)C(O)CC1=O)C(C)CC2OC` (stereo not shown) [Tacrolimus, 17-allyl-1,14-dihydroxy-12-[2-(4-hydroxy-3-methoxycyclohexyl)-1-methylvinyl]-23,25-dimethoxy-13,19,21,27-tetramethyl-11,28-dioxa-4-azatricyclo[22.3.1.0^4,9]octacos-18-ene-2,3,10,16-tetraone], the loading efficiencies [1] is reported as “higher than 70%”, the stability on storage ([2]; formulation with a target of 150 mg/g) is reported as “best stable formulation” and the “stability on storage (precipitation)” value ([2]; higher (than 150 mg/g target) and possibly oversaturated formulations) is reported as “slight drug precipitation”. For the same compound, the water solubility [3] was “poorly water-soluble”.

Source: patent US20130281638A1, “TRICYCLO COMPOUND-POLYMER CONJUGATE” (SUCAMPO AG, priority 2012, published 2013)
